Reference: publication PMC10835127, “Viruses traverse the human proteome through peptide interfaces that can be biomimetically leveraged for drug discovery” (Proceedings of the National Academy of Sciences of the …, 2024)

Assays:
[1] = Microsomal stability, mouse liver microsomes; type: in vitro ADME; settings: male, CD-1, mouse, pH 7.4; murine liver microsomes; read-out: CLint mLM
Experimental: Tested compounds (1 μM) were incubated with pooled human liver microsomes (Xenotech; pooled male and female) and pooled mouse liver microsomes (Xenotech; male CD-1 mice).
Microsomes (final protein concentrations of 0.25 and 0.5 mg/ml, 0.1 M phosphate buffer pH 7.4) containing tested compound (final substrate concentration 1 μM; final DMSO concentration 0.25 %) were preincubated at 37 °C prior to the addition of NADPH (final concentration 1 mM) to initiate the reaction. The final incubation volume was 200 μl. 3 species-specific control compounds were included with each species. At 5 time points (0, 5, 10, 20, and 40 min), reactions were stopped by transferring 50 μl of the incubation mixture into 0.5 μM carbamazepine in acetonitrile. Tested compound concentrations were analyzed by LC-MS/MS and the resulting data were used to determine the half-life and intrinsic clearance of the compound in each

[2] = target: T1, MiNT (Homo sapiens, UniProt P0C7P0); test: In vitro NEET [2Fe-2S] cluster release, MiNT; type: biochemical; settings: recombinant MiNT, 37 °C, absorbance 460 nm
T1 construct: made in house; host or cells: E. coli
T1 sequence (P0C7P0 15-127): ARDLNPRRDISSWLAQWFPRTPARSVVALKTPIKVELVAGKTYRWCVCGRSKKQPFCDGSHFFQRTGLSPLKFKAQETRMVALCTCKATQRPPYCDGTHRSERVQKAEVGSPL
Experimental: (§1) MitoNEET ([60]) and NAF-1 ([61]) cytosolic domains and MiNT ([62]) were purified from E. coli as previously published. Experiments were performed in 96-well plates at 37 °C with […] of Fe-S cluster in a buffer composed of 50 mM Tris-HCl pH 7 and 100 mM NaCl. dEF3122 was dissolved in dimethyl sulfoxide (DMSO) at 10 mM. CPEP31 was dissolved in PBS at 10 mM. After 20 min of incubation of the protein with the molecule, NEET cluster release was followed by measuring the absorbance at 460 and 800 nm over time using a plate reader (SpectraMax ID3). The absorbance at 460 nm was corrected for the variation of the baseline (absorbance at 800 nm) over time and normalized at 1 at the beginning of the kinetics.

[3] = Cryopreserved hepatocyte stability, human; type: in vitro ADME; settings: cryopreserved hepatocytes, read-out: CLint hHep
Experimental: Cryopreserved hepatocyte stability
Tested compounds (1 μM) were incubated with human cryopreserved hepatocytes (pool of 5) (IVT Celsis) and mouse cryopreserved hepatocytes (IVT Celsis). Hepatocytes (1, 0.5 or 0.25 x10^6 cells/mL, Williams’ Medium E (WME) with 4 mM L-glutamine and 2 mM magnesium sulphate) containing tested compound (final substrate concentration 1 μM; final DMSO concentration 0.25 %) were preincubated at 37 °C. The final incubation volume was 500 μl. 3 species-specific control compounds were included with each species. At 7 time points (0, 10, 20, 40, 60, 90, and 120 min), reactions were stopped by transferring 50 μl of the incubation mixture into 0.5 μM carbamazepine in cold acetonitrile. Tested compound concentrations were analyzed by LC-MS/MS and the resulting data were used to determine the half-life and intrinsic clearance of the compound in each species. […]

[4] = Plasma protein binding by equilibrium dialysis, murine; type: in vitro ADME; settings: mouse, read-out: PPB (% bound)
Experimental: The free and bound fractions of the tested compounds in mouse and human plasma were determined by equilibrium dialysis using a 96-well Teflon dialysis unit (HTDialysis plate complete unit, HT Dialysis, USA). The HTDialysis plate complete unit consists of a 96-well plate with wells vertically bisected by a semipermeable membrane (membranes strips 12 to 14 kDa) creating two chambers. A 125 μL aliquot of plasma containing tested compound at 10 μM was placed on one side and 125 μL of Dulbecco‘s phosphate buffered saline (D-PBS) on the other. The plate was incubated at 37 °C for 6 hr under gentle agitation. Then, samples from both plasma and buffer compartment were analyzed by a LC-MS/MS method to measure the free fraction and the bound fraction to the plasma proteins. […]

[5] = target: T2, NAF-1 (Homo sapiens, UniProt Q8N5K1); test: In vitro NEET [2Fe-2S] cluster release, NAF-1; type: biochemical; settings: recombinant NAF-1, 37 °C, absorbance 460 nm
T2 construct: MitoNEET ([60]) and NAF-1 ([61]) cytosolic domains and MiNT ([62]) were purified from E. coli as previously published; made in house; host or cells: E. coli
T2 sequence (Q8N5K1 61-135 limits assumed): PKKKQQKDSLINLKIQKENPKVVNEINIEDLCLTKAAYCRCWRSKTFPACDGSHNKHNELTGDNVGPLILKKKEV
Experimental: as §1

[6] = PK parameters in mice; type: in vivo, male Swiss (CD-1) mice; settings: mouse
Experimental: PK parameters and tissue distribution in mice
The pharmacokinetic profiles of the tested compounds were evaluated in male Swiss (CD-1) mice around 5-6 weeks old (3 animals per sampling time). […]
0.2 % Tween 80 in water. Blood samples were collected (0.25 mL) from the sinus retro-orbital […]
24 hr for p.o. route. The blood samples were immediately centrifuged at 2500 rpm at +4 °C, and the plasma was stored at −80 °C. 50 μL of plasma sample was taken and 150 μL of acetonitrile was added. After protein precipitation, analysis of the molecule was performed using LC-MS/MS to determine plasma compound concentration. For liver and lung collection, 3 animals per group were involved and sampled after 2 hr and 24 hr upon 20 mg/kg p.o. administration. Animals were perfused with around 10 mL of saline solution directly into the heart to extract the maximal blood sample from the liver and the lung. Animals were then sacrificed by cervical dislocation and liver

O=C(Nc1scc(C2CCc3ccccc3C2)c1C(=O)O)c1ccccc1 (centres unmarked) [dEF3122]
microsomal CLint at 1 µM [1]: 24 µL/min/mg
interaction by [2Fe-2S] cluster release assay [2]: validated the interaction
hepatocyte CLint at 1 µM [3]: 19 µL/min/1e6 cells
fraction unbound at 6 h, 10 µM [4]: 0.001
interaction by [2Fe-2S] cluster release assay [5]: validated the interaction
Cmax ([6]; male, Swiss (CD-1), plasma, po 2 mg/kg (dose for AUC)): 1600 ng/mL
bioavailability ([6]; male, Swiss (CD-1), plasma, po 2 mg/kg, iv 0.25 mg/kg): 36%
plasma concentration reached after oral administration, molar equivalent ([6]; po 2 mg/kg): 2.6 µM
